This is an account of results in patent publication US4022895A, “Substituted phenylglycylcephalosporins” (SmithKline Corporation, priority 1975, dated 1977).

SMILES strings stand for the structures. Values after ≈ are worked out from the molar mass of the structure shown. Like-named read-outs stand apart in the source and are kept apart here.

The ED50 is the midpoint of the dose-response relation. A word on the MIC: it is the least concentration at which growth counts as inhibited.

In one assay the test system is Klebs.pneumo. 4200. Briefly: In vivo activity (ED50) against Klebs.pneumo. 4200. To be noted: read-out: ED50.
The subject of assay [1] is Sal. paratyphl ATCC 12176. Briefly: In vitro antibacterial activity (MIC). Type of assay: cell-based. As to the method:
(§1) The compounds of this invention have antibacterial activity against Gram-positive and Gram-negative organisms. Minimum inhibitory concentrations (MIC's) ranged from 0.4 to >200 μg/ml in in vitro testing.

The next assay has as its system S.aureus SK 23390. Kind of assay: In vitro antibacterial activity (MIC). Type of assay: cell-based. To be noted: Staphylococcus aureus, SK23390. As for the experimental part:
as §1

The subject of a further assay is Kleb. pneumo. SK 1200. Briefly: In vitro antibacterial activity (MIC). Type of assay: cell-based. As to the method:
as §1

In the next assay the test system is S.aureus HH 127. Kind of assay: In vitro antibacterial activity (MIC). Type of assay: cell-based. The following applies: Staphylococcus aureus, HH127; S.aureus HH 127, in vitro; read-out: MIC. As for the experimental part: as §1
A further assay concerns Shig. paradys HH 112. Kind of assay: In vitro antibacterial activity (MIC). Type of assay: cell-based. To be noted: Shig. paradys HH 112, in vitro; read-out: MIC. As to the method:
as §1

Another assay has as its system E.coli SK 12140. Kind of assay: In vitro antibacterial activity (MIC). Type of assay: cell-based. The following applies: Escherichia coli, SK12140. As to the method:
as §1

For assay [2], the system named is Entero. aerog. ATCC 13048. Briefly: In vitro antibacterial activity (MIC). The following applies: Entero. aerog. ATCC 13048, in vitro; read-out: MIC. Type of assay: cell-based. As for the experimental part: as §1
In a further assay the test system is S.aureus Villaluz. Kind of assay: In vitro antibacterial activity (MIC). The following applies: Staphylococcus aureus. Type of assay: cell-based. As to the method: as §1
A further assay relates to Strep. faecalis HH 34358. Kind of assay: In vitro antibacterial activity (MIC). Type of assay: cell-based. The following applies: Enterococcus faecalis, HH34358; Strep. faecalis HH 34358, in vitro. As for the experimental part: as §1
The test system of the next assay is E. coli HH 33779. Kind of assay: In vitro antibacterial activity (MIC). Type of assay: cell-based. The following applies: Escherichia coli, HH33779; E. coli HH 33779, in vitro; read-out: MIC. As for the experimental part:
as §1

In another assay the test system is Kleb. pneumo. SK 4200. Kind of assay: In vitro antibacterial activity (MIC). Type of assay: cell-based. The following applies: Kleb. pneumo. SK 4200, in vitro; read-out: MIC. As to the method: as §1
The next assay concerns E.coli 12140. Kind of assay: In vivo activity (ED50) against E.coli 12140.
The next assay has as its system Proteus morgani 179. Kind of assay: In vitro antibacterial activity (MIC). Type of assay: cell-based. To be noted: Proteus morgani 179, in vitro; read-out: MIC. As for the experimental part:
as §1

The mark [3] stands for this setting: S.aureus SK 23390, in vitro, read-out: MIC.
Where [4] appears, read: Escherichia coli, 12140, sc, E.coli 12140, s.c.
[5] abbreviates: Kleb. pneumo. SK 1200, in vitro, read-out: MIC.
Setting [6] is: E.coli SK 12140, in vitro, read-out: MIC.
Setting [7] is: Escherichia coli, 12140, po, E.coli 12140, p.o.

As to `Cc1nnc(SCC2=C(C(=O)O)N3C(=O)C(NC(=O)C(N)c4ccc(OCC(=O)O)cc4)C3SC2)s1` (centres unmarked) [*59216], the median effective dose (ED50) was 29 mg/kg in the assay on Klebs.pneumo. 4200 (po, Klebs.pneumo. 4200, p.o.) and 6.2 mg/kg with E.coli 12140 (setting [4]). Also, the MIC in assay [1] is 3.1 to 12.5 µg/mL (≈ 5.62 to 22.7 µM); in the assay on S.aureus SK 23390 (setting [3]) it was 100 to 200 µg/mL (≈ 181 to 363 µM); in the assay on Kleb. pneumo. SK 1200, 3.1 to 12.5 µg/mL (≈ 5.62 to 22.7 µM); with S.aureus HH 127 it was 6.3 to 25 µg/mL (≈ 11.4 to 45.3 µM); with Shig. paradys HH 112, 1.6 to 12.5 µg/mL (≈ 2.9 to 22.7 µM); against E.coli SK 12140, 3.1 to 12.5 µg/mL (≈ 5.62 to 22.7 µM). The MIC in assay [2] was in the range of 12.5 to 50 µg/mL (≈ 22.7 to 90.6 µM); with S.aureus Villaluz it was 100 to 200 µg/mL (≈ 181 to 363 µM); against Strep. faecalis HH 34358 it was 50 to 200 µg/mL (≈ 90.6 to 363 µM); in the assay with E. coli HH 33779, 6.3 to 25 µg/mL (≈ 11.4 to 45.3 µM); with Kleb. pneumo. SK 4200, 1.6 to 6.3 µg/mL (≈ 2.9 to 11.4 µM).

As for `Cc1nnc(SCC2=C(C(=O)O)N3C(=O)C(NC(=O)C(N)c4ccc(OCC(N)=O)cc4)C3SC2)s1` (centres unmarked) [*71816], the 50% effective dose (ED50) in the assay on Klebs.pneumo. 4200 (po, Klebs.pneumo. 4200, p.o.) stood at 13.7 mg/kg; in the assay with Klebs.pneumo. 4200 (sc, Klebs.pneumo. 4200, s.c.), 11.5 mg/kg; in the assay with E.coli 12140 (setting [7]) it was 21.5 mg/kg; with E.coli 12140 (setting [4]) it was 13.7 mg/kg. Besides, the minimal inhibitory concentration (MIC) turned out to be 12.5 µg/mL (≈ 22.7 µM) in [1]; 12.5 µg/mL (≈ 22.7 µM) against S.aureus SK 23390; 50 µg/mL (≈ 90.8 µM) in the assay on Kleb. pneumo. SK 1200 (setting [5]); 25 µg/mL (≈ 45.4 µM) in the assay on S.aureus HH 127; 12.5 µg/mL (≈ 22.7 µM) in the assay with Shig. paradys HH 112; 50 µg/mL (≈ 90.8 µM) in the assay with E.coli SK 12140 (setting [6]). Besides, the minimal inhibitory concentration (MIC) turned out to be 100 µg/mL (≈ 182 µM) in [2]; 100 µg/mL (≈ 182 µM) with S.aureus Villaluz; 200 µg/mL (≈ 363 µM) in the assay with Strep. faecalis HH 34358; 50 µg/mL (≈ 90.8 µM) in the assay with E. coli HH 33779; 25 µg/mL (≈ 45.4 µM) in the assay with Kleb. pneumo. SK 4200.

For the molecule `COC(=O)COc1ccc([C@@H](N)C(=O)NC2C(=O)N3C(C(=O)O)=C(C)CSC23)cc1` (stereo partly drawn) [Compound No. 07826, 7-[D-α-Amino-α-(4'-carbomethoxymethoxyphenyl)acetamido]-3-desacetoxycephalosporanic acid], the MIC in [1] worked out at 50 µg/mL (≈ 115 µM); in the assay on S.aureus SK 23390 (setting [3]), 6.3 µg/mL (≈ 14.5 µM); with Kleb. pneumo. SK 1200 (setting [5]), 100 µg/mL (≈ 230 µM); with S.aureus HH 127 it was 6.3 µg/mL (≈ 14.5 µM); in the assay with Shig. paradys HH 112, 50 µg/mL (≈ 115 µM); with E.coli SK 12140 (setting [6]), 100 µg/mL (≈ 230 µM). Besides, the MIC in assay [2] is greater than 200 µg/mL; against S.aureus Villaluz, 200 µg/mL (≈ 459 µM); in the assay with Strep. faecalis HH 34358, 100 µg/mL (≈ 230 µM); in the assay with E. coli HH 33779, greater than 200 µg/mL; with Kleb. pneumo. SK 4200 it was 100 µg/mL (≈ 230 µM).

For `COC(=O)COc1ccc([C@@H](N)C(=O)NC2C(=O)N3C(C(=O)O)=C(CSc4c[nH]nn4)CSC23)cc1` (stereo partly drawn) [Compound No. 19736, 7-[D-α-Amino-α-(4'-carbomethoxymethoxyphenyl)acetamido]-3-(1,2,3-triazol-4-ylthiomethyl)-3-cephem-4-carboxylic acid], the MIC in assay [1] was 25 µg/mL (≈ 46.8 µM); with S.aureus SK 23390 (setting [3]), 12.5 µg/mL (≈ 23.4 µM); in the assay with Kleb. pneumo. SK 1200 (setting [5]), 50 µg/mL (≈ 93.5 µM); in the assay with S.aureus HH 127, 12.5 µg/mL (≈ 23.4 µM); with Shig. paradys HH 112, 25 µg/mL (≈ 46.8 µM); in the assay with Proteus morgani 179 it was greater than 200 µg/mL. The minimum inhibitory concentration (MIC) was 50 µg/mL (≈ 93.5 µM) with E.coli SK 12140 (setting [6]); greater than 200 µg/mL in assay [2]; 200 µg/mL (≈ 374 µM) with S.aureus Villaluz; 100 µg/mL (≈ 187 µM) in the assay with Strep. faecalis HH 34358; 100 µg/mL (≈ 187 µM) in the assay with E. coli HH 33779; 50 µg/mL (≈ 93.5 µM) in the assay on Kleb. pneumo. SK 4200. Besides, the ED50 in the assay on E.coli 12140 (setting [7]) came out at 25 mg/kg; in the assay with E.coli 12140 (setting [4]), 34 mg/kg.
